These results are taken from US6924278B2, “Aroyl-piperazine derivatives, their preparation and their use as tachykinin antagonists” (Fujisawa Pharmaceutical Co., Ltd., priority 1997, dated 2005).

Where a name gives a salt, the structure may show the parent alone. Some results are limits rather than exact numbers.

The target of one data set is T1, h-NK1 receptors (Homo sapiens, UniProt P25103).
T1 construct: expressed in transfected cells; host or cells: CHO cells (permanent expression), crude cell membranes
Kind of data set: Evaluation of NK1 antagonist transport efficiency to the central nervous system using a h-NK1 receptor binding assay (brain extract after i.v. dosing of rats). Particulars: 5 min; compound extracted from brain of male SD rats 5 min after i.v. injection at the dose of 1 mg/kg; CHO cell membranes expressing h-NK1; read-out: inhibition rate of 125I-BH-Substance P binding to h-NK1 receptors. The protocol:
A. Evaluation of NK1 Antagonist Transport Efficiency to the Cental Nervous System using a h-NK1 Receptor Binding Assay
(1) Administration of Test Compound and Extraction of the Compound from Brain
Male SD rats were given an i.v. injection of a solution containing a test compound (1 mg/kg). 5 Min later the animals were anesthetized by ether, bled and perfused through the aorta ascendens with 20 ml of saline. The brain was rapidly removed, weighed and homogenized in 4 vol. ice-cold distilled water by using Polytoron (KINEMATICA). To extract the test compound, 500 μl of the homogenate, 100 μl of methanol, 500 μl of 0.1 N NaOH and 4 ml of ethyl acetate were mixed by shaking for 10 min at room temperature. The organic phase (2.5 ml) was recovered by centrifugation at 3,000 rpm for 10 min, dried and dissolved in dimethyl sulfoxide.
(2) h-NK1 Receptor Binding Assay
(a) Crude CHO Cell Membrane Preparation
CHO cells permanently expressing h-NK1 receptors were harvested and homogenized with a Dounce homogenizer at 4° C. in a buffer (0.25 M sucrose, 25 mM Tris-HCl (pH 7.4), 10 mM MgCl2, 1 mM EDTA, 5 μg/ml p-APMSF). The homogenate was centrifuged (500×g, 10 min), and the pellet was resuspended in the same buffer, homogenized, and centrifuged. The two supernatants were combined and centrifuged (100,000×g, 1 hour). The crude cell membranes thus isolated were resuspended in a buffer (25 mM Tris-HCl (pH 7.4), 10 mM MgCl2, 1 mM. EDTA, 5 μg/ml p-APMSF) and stored at −80° C. until use.
(b) ^125I-BH-Substance P Binding to the Prepared Membrane
Cell membranes (6 μg/ml) were incubated with ^125I-BH-Substance P (0.1 nM) with or without the extracted compounds in 0.25 ml of a medium (50 mM Tris-HCl (pH 7.4), 5 mM MnCl2, 20 μg/ml chymostatin, 40 μg/ml bacitracin, 4 μg/ml leupeptin, 5 μg/ml p-APMSF, 200 μg/ml BSA) at 22° C. for 90 min. At the end of the incubation period, the contents were quickly filtered through a Blue Mat 11740 filter (pretreated with 0.1% polyethylenimine for 3 hours prior to use) by using SKATRON Cell Harvester. The filter was then washed with a washing buffer (50 mM Tris-HCl (pH 7.4), 5 mM MnCl2). The radioactivity was counted by using an auto gamma counter (Packard RIASTAR 5420A). All data presented are specific binding defined as that displaceable by 3 μM unlabeled Substance P.

T1 sequence (P25103 whole entry): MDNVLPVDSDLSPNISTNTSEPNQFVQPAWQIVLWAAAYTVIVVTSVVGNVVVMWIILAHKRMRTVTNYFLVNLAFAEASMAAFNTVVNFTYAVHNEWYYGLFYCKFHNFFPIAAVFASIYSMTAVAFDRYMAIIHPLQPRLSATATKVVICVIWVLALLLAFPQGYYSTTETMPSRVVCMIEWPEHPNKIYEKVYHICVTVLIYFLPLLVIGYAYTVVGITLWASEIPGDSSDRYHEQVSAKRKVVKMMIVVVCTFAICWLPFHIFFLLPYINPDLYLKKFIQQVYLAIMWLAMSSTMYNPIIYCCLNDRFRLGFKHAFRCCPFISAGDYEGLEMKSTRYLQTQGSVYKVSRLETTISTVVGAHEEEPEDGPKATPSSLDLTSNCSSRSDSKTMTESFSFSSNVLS

In turn, `Cc1ccc(C[C@@H]2CN(C/C=C/c3cccnc3)CCN2C(=O)c2cc(C(F)(F)F)cc(C(F)(F)F)c2)cc1C.Cl.Cl` [6-(1), (2R)-1-[3,5-Bis(trifluoromethyl)benzoyl]-2-(3,4-dimethylbenzyl)-4-[(E)-3-(3-pyridyl)-2-propenyl]piperazine dihydrochloride] came in with a melting point of 170 to 174 °C. The inhibition at 1 mg/kg at h-NK1 receptors was more than 80%. The molecule `Cc1ccc(C[C@@H]2CN(C/C=C/CN3CCOCC3)CCN2C(=O)c2cc(Cl)cc(Cl)c2)cc1C.Cl.Cl` [16-(2), (2R)-1-(3,5-Dichlorobenzoyl)-2-(3,4-dimethylbenzyl)-4-[(E)-4-morpholino-2-butenyl]piperazine dihydrochloride] showed a melting point of more than 230 °C. In addition, the inhibition at 1 mg/kg on h-NK1 receptors is more than 80%. In turn, `Cl.Cl.O=C(c1cc(C(F)(F)F)cc(C(F)(F)F)c1)N1CCN(C/C=C/c2cccnc2)C[C@H]1Cc1c[nH]c2ccccc12` [56-(2), (2R)-1-[3,5-Bis(trifluoromethyl)benzoyl]-2-[(1H-indol-3-yl)methyl]-4-[(2E)-3-(3-pyridyl)-2-propenyl]piperazine dihydrochloride] came in with a melting point of 195 to 203 °C. For the same molecule, the inhibition at 1 mg/kg at h-NK1 receptors is more than 80%. Turning to `COCC1(C)COCCN1CC#CCN1CCN(C(=O)c2cc(C(F)(F)F)cc(C(F)(F)F)c2)[C@H](Cc2ccc(C)c(C)c2)C1.Cl.Cl` (stereo partly drawn) [71-(1), (2R)-1-[3,5-Bis(trifluoromethyl)benzoyl]-2-(3,4-dimethylbenzyl)-4-[4-(3-methoxymethyl-3-methylmorpholino)-2-butynyl]piperazine dihydrochloride], the melting point is 155 to 160 °C. For the same molecule, the inhibition at 1 mg/kg at h-NK1 receptors was more than 80%. The molecule `Cc1ccc(C[C@@H]2CN(CC#CCN3[C@@H](C)COC[C@@H]3C)CCN2C(=O)c2cc(C(F)(F)F)cc(C(F)(F)F)c2)cc1C.Cl.Cl` [71-(3), (2R)-1-[3,5-Bis(trifluoromethyl)benzoyl]-2-(3,4-dimethylbenzyl)-4-[4-((3S,5S)-3,5-dimethylmorpholino)-2-butynyl]piperazine dihydrochloride] came in with a melting point of 160 to 165 °C. Moreover, the inhibition at 1 mg/kg on h-NK1 receptors was more than 80%.

Consider `COC[C@@H]1CN(CC#CCN2CCN(C(=O)c3cc(C(F)(F)F)cc(C(F)(F)F)c3)[C@H](Cc3ccc(C)c(C)c3)C2)CCO1.Cl.Cl` [71-(5), (2R)-1-[3,5-Bis(trifluoromethyl)benzoyl]-2-(3,4-dimethylbenzyl)-4-[4-((2S)-2-methoxymethylmorpholino)-2-butynyl]piperazine dihydrochloride], for which the melting point was in the range of 85 to 95 °C. On h-NK1 receptors, the inhibition at 1 mg/kg is more than 80%. The molecule `COC[C@H]1CN(CC#CCN2CCN(C(=O)c3cc(C(F)(F)F)cc(C(F)(F)F)c3)[C@H](Cc3ccc(C)c(C)c3)C2)CCO1.Cl.Cl` [71-(6), (2R)-1-[3,5-Bis(trifluoromethyl)benzoyl]-2-(3,4-dimethylbenzyl)-4-[4-((2R)-2-methoxymethylmorpholino)-2-butynyl]piperazine dihydrochloride] gave a melting point of 80 to 90 °C. In addition, the inhibition at 1 mg/kg on h-NK1 receptors is more than 80%. The corresponding values for `COC[C@H]1COCCN1C/C=C/CN1CCN(C(=O)c2cc(C(F)(F)F)cc(C(F)(F)F)c2)[C@H](Cc2ccc(C)c(C)c2)C1.Cl.Cl` [73-(3), (2R)-1-[3,5-Bis(trifluoromethyl)benzoyl]-2-(3,4-dimethylbenzyl)-4-[(E)-4-((3S)-3-methoxymethylmorpholino)-2-butenyl]piperazine dihydrochloride] are 130 to 140 °C and more than 80%.

On to `Cc1ccc(C[C@@H]2CN(CCCN3CCOCC3(C)C)CCN2C(=O)c2cc(C(F)(F)F)cc(C(F)(F)F)c2)cc1C.Cl.Cl` [78-(4), (2R)-1-[3,5-Bis(trifluoromethyl)benzoyl]-2-(3,4-dimethylbenzyl)-4-[3-(3,3-dimethylmorpholino)propyl]piperazine dihydrochloride], for which the melting point was found to be 197 °C. In addition, on h-NK1 receptors, the inhibition at 1 mg/kg is more than 80%.

In turn, `CC1(C)COCCN1CCN1CCN(C(=O)c2cc(C(F)(F)F)cc(C(F)(F)F)c2)[C@H](Cc2c[nH]c3ccccc23)C1.Cl.Cl` [79-(1), (2R)-1-[3,5-Bis(trifluoromethyl)benzoyl]-4-[2-(3,3-dimethylmorpholino)ethyl]-2-[(1H-indol-3-yl)methyl]piperazine dihydrochloride] returned a melting point of 247 to 258 °C. In addition, at h-NK1 receptors, the inhibition at 1 mg/kg is more than 80%. `Cc1ccc(C[C@@H]2CN(CCN3CCOCC3(C)C)CCN2C(=O)c2cc(C(F)(F)F)cc(C(F)(F)F)c2)cc1C.Cl.Cl` [79-(2), (2R)-1-[3,5-Bis(trifluoromethyl)benzoyl]-2-(3,4-dimethylbenzyl)-4-[2-(3,3-dimethylmorpholino)ethyl]piperazine dihydrochloride] had a melting point of 190 to 210 °C. The inhibition at 1 mg/kg on h-NK1 receptors was more than 80%. For `Cc1ccc(C[C@@H]2CN(CCN3CCOC[C@@H]3CO)CCN2C(=O)c2cc(C(F)(F)F)cc(C(F)(F)F)c2)cc1C.Cl.Cl` [80-(2), (2R)-1-[3,5-Bis(trifluoromethyl)benzoyl]-2-(3,4-dimethylbenzyl)-4-[2-((3S)-3-hydroxymethylmorpholino)ethyl]piperazine dihydrochloride], the melting point is 150 to 160 °C. Further, on h-NK1 receptors, the inhibition at 1 mg/kg is more than 80%.

Turning to `COC[C@H]1COCCN1CCN1CCN(C(=O)c2cc(C(F)(F)F)cc(C(F)(F)F)c2)[C@H](Cc2ccc(C)c(C)c2)C1.Cl.Cl` [80-(4), (2R)-1-[3,5-Bis(trifluoromethyl)benzoyl]-2-(3,4-dimethylbenzyl)-4-[2-((3S)-3-methoxymethylmorpholino)ethyl]piperazine dihydrochloride], the melting point lay in the range of 90 to 100 °C. At h-NK1 receptors, the inhibition at 1 mg/kg is more than 80%.

As to `COC[C@H]1COCCN1CCCN1CCN(C(=O)c2cc(C(F)(F)F)cc(C(F)(F)F)c2)[C@H](Cc2ccc(C)c(C)c2)C1.Cl.Cl` [80-(6), (2R)-1-[3,5-Bis(trifluoromethyl)benzoyl]-2-(3,4-dimethylbenzyl)-4-[3-((3S)-3-methoxymethylmorpholino)propyl]piperazine dihydrochloride], the melting point was 55 to 60 °C. In addition, the inhibition at 1 mg/kg at h-NK1 receptors was more than 80%.

As for `Cc1ccc(C[C@@H]2CN(CCOCCN3CCOCC3)CCN2C(=O)c2cc(C(F)(F)F)cc(C(F)(F)F)c2)cc1C` [Example 22, (2R)-1-[3,5-Bis(trifluoromethyl)benzoyl]-2-(3,4-dimethylbenzyl)-4-[2-(2-morpholinoethoxy)ethyl]piperazine dihydrochloride], on h-NK1 receptors, the inhibition at 1 mg/kg is more than 80%. With `O=C(c1cc(C(F)(F)F)cc(C(F)(F)F)c1)N1CCN(CC#CCNCc2cccnc2)C[C@H]1Cc1ccc2ccccc2c1` [Example 30, (2R)-1-[3,5-bis(trifluoromethyl)benzoyl]-4-[4-(3-pyridylmethylamino)-2-butynyl]-2-(2-naphthylmethyl)piperazine trihydrochloride], the inhibition at 1 mg/kg at h-NK1 receptors is more than 80%. Consider `CC[C@H]1COCCN1CC#CCN1CCN(C(=O)c2cc(C(F)(F)F)cc(C(F)(F)F)c2)[C@H](Cc2ccc(C)c(C)c2)C1` [Example 38, (2R)-1-[3,5-bis(trifluoromethyl)benzoyl]-4-[4-((3S)-3-ethylmorpholino)-2-butynyl]-2-(3,4-dimethylbenzyl)piperazine dihydrochloride], for which the inhibition at 1 mg/kg on h-NK1 receptors is more than 80%. As for `COC[C@H]1COCCN1CCCCN1CCN(C(=O)c2cc(C(F)(F)F)cc(C(F)(F)F)c2)[C@H](Cc2ccc(C)c(C)c2)C1` [Example 82, (2R)-1-[3,5-bis(trifluoromethyl)benzoyl]-2-(3,4-dimethylbenzyl)-4-[4-((3S)-3-methoxymethylmorpholino)butyl]piperazine dihydrochloride], at h-NK1 receptors, the inhibition at 1 mg/kg was more than 80%. Take `CC1(C)COCCN1CC#CCN1CCN(C(=O)c2cc(C(F)(F)F)cc(C(F)(F)F)c2)C(Cc2ccc3c(c2)OCO3)C1` (stereo not drawn) [Example 84, 1-[3,5-bis-(trifluoromethyl)benzoyl]-4-[4-(3,3-dimethylmorpholino)-2-butynyl]-2-(3,4-methylenedioxybenzyl)piperazine dihydrochloride]: on h-NK1 receptors, the inhibition at 1 mg/kg was more than 80%.
